# From patent US9828381B2, “Substituted pyrazolopyrimidines and method of use” (AbbVie Deutschland GmbH & Co. KG, priority 2015, dated 2017)
# Biological target: GABA-B receptor (Rattus norvegicus (Rat), UniProt O88871+Q9Z0U4)
# Experiment: [35S]GTPgS binding assay, rat cortical membranes, in presence of EC25 GABA
# Assay type: biochemical
# Conditions: rat brain cortex membranes; in presence of 1 μM GABA (EC25); positive allosteric modulation
# Experimental: Preparation of Rat Brain Membranes for Native Receptor Assays
# Membranes from rat brain cortex were prepared as described in detail by Olpe et al. and stored at concentrations of 1.66 mg/mL protein at −80° C. until required. (Olpe, H.-R, et al. Eur J Pharmacol 1990; 187: 27-38).
# [^35S] GTPgS Binding Assay
# The composition of the assay mixtures [in a final volume of 200 μL in 96-well U-bottom plates (Greiner) was as follows: 50 mM Tris-HCl buffer, pH 7.7, 10 mM MgCl2, 0.2 mM EGTA, 2 mM CaCl2, 100 mM NaCl, 20 µM guanosine 5′-diphosphate (Sigma), 0.3 nM [^35S]GTPgS (1250 Ci/mmol (PerkinElmer)), and the test compounds at increasing concentrations (from 10 nM up to […]), […] of rat cortical membranes, and a concentration of […], that has been observed in previous experiments to correspond to the EC25, a concentration that gives 25% of the maximal response of GABA. The samples were incubated at room temperature for 60 minutes on a shaker. The incubation was stopped by rapid vacuum filtration over glass-fiber filter plates (UniFilter-96 well, GF/B membrane plates, PerkinElmer) using a 96-well plate harvester (TOMTEK© Harvester). The UniFilter plate was washed five times with ice-cold wash buffer (50 mM Tris-HCl buffer, pH 7.7, 10 mM MgCl2, and 100 mM NaCl. After filtration the plate was dried for 90 minutes at 55° C. The plates were closed on the bottom with black sealing membranes, and liquid scintillation cocktail (35 μL, Betaplate Scint, PerkinElmer) was added to each well. After sealing the top of the plate, an additional incubation step of 90 minutes at room temperature followed before measuring the plate. The amount of membrane-bound [^35S]GTPgS was measured using a 96-well plate reader (Microbeta®, PerkinElmer). Nonspecific binding was measured in the presence of unlabeled 10 μM of GTPgS (Millipore) and without GABA. Basal binding was measured in the absence of 1 μM GABA, and maximal binding was measured in the presence of GABA using 1 mM GABA concentrations.
# Data analysis. The concentration-response curves of compounds of the present disclosure in the presence of EC25 of GABA-B receptor agonist were generated using the GraphPad Prism® program (GraphPad Software, San Diego, Calif.). Data was normalized using basal binding as 0% and maximal binding as 100%. The curves were fitted by nonlinear regression allowing determination of EC50 values from sigmoidal dose-response curves. Each curve was performed using triplicate sample per date point and 10 concentrations.
# Chain of GABA-B receptor (Q9Z0U4 17-960): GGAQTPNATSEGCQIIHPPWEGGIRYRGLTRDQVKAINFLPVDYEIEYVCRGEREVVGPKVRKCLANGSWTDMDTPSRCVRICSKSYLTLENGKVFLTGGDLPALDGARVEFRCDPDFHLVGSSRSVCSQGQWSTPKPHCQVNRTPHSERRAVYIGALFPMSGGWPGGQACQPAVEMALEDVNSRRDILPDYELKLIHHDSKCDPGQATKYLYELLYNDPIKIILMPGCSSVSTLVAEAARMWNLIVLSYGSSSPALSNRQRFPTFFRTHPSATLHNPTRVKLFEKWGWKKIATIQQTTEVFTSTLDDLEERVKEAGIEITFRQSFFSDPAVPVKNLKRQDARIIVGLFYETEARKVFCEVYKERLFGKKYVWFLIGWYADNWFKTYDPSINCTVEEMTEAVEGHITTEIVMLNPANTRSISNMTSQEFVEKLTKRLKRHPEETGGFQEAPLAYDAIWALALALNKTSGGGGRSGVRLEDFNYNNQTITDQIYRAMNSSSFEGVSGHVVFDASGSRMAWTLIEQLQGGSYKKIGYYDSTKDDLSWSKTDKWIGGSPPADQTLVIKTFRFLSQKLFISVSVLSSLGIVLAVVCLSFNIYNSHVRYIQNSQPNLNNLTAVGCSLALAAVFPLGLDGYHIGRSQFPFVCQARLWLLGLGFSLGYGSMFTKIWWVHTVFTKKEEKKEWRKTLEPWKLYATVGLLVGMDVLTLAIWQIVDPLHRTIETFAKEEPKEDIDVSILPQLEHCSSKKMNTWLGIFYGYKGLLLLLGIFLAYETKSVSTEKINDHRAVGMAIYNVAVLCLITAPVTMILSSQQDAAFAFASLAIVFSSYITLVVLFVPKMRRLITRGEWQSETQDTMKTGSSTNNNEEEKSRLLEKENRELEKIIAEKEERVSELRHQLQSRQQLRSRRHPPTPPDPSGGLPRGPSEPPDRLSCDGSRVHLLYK
# Chain of GABA-B receptor (O88871 41-940): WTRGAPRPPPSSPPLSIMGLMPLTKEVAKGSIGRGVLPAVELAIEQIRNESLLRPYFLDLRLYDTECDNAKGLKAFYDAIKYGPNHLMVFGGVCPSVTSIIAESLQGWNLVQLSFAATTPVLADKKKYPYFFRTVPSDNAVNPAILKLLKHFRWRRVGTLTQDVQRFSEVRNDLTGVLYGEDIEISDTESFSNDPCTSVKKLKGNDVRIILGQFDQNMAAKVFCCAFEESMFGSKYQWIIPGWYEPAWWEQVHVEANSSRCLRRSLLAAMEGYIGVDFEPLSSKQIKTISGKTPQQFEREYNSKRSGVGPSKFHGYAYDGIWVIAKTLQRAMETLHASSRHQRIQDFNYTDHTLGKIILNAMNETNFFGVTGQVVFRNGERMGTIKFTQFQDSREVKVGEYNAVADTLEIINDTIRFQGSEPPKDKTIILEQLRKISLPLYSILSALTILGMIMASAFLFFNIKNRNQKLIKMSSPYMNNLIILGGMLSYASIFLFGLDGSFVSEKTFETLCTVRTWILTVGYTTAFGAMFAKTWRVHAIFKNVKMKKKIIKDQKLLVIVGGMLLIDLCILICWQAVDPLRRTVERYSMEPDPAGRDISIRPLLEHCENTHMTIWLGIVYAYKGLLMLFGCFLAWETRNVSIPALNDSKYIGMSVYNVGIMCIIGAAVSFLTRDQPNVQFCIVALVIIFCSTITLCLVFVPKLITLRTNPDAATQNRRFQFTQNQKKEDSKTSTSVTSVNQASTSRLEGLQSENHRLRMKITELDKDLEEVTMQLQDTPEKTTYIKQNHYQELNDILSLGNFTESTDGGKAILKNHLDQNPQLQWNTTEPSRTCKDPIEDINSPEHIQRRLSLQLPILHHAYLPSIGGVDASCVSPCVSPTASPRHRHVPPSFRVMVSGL
row,EC50,Structure (SMILES)
1,0.499 µM,"Cc1cc(N[C@H]2C[C@@H](O)C2)n2nc(C(C)c3ccc(Cl)cc3)cc2n1 (relative stereo) [Example 2-18, cis-3-({2-[1-(4-chlorophenyl)ethyl]-5-methylpyrazolo[1,5-a]pyrimidin-7-yl}amino)cyclobutanol]"
2,1.31 µM,"Cc1cc(N[C@H]2C[C@H](O)C2)n2nc(C(C)c3ccc(Cl)cc3)cc2n1 (relative stereo) [Example 2-19, trans-3-({2-[1-(4-chlorophenyl)ethyl]-5-methylpyrazolo[1,5-a]pyrimidin-7-yl}amino)cyclobutanol]"
3,1.4 µM,"Cc1cc(N2CCCCC2CCO)n2nc(Cc3ccc(Cl)cc3)cc2n1 (stereo not shown) [Example 1-1, 2-{1-[2-(4-chlorobenzyl)-5-methylpyrazolo[1,5-a]pyrimidin-7-yl]piperidin-2-yl}ethanol]"
4,1.66 µM,"Cc1cc(N2CCCCC2CO)n2nc(Cc3ccc(Cl)cc3)cc2n1 (stereo not shown) [Example 1-2, {1-[2-(4-chlorobenzyl)-5-methylpyrazolo[1,5-a]pyrimidin-7-yl]piperidin-2-yl}methanol]"
5,2.55 µM,"Cc1cc(NC2(C)CC2)n2nc(Cc3ccc(Cl)cc3)cc2n1 [Example 1-3, 2-(4-chlorobenzyl)-5-methyl-N-(1-methylcyclopropyl)pyrazolo[1,5-a]pyrimidin-7-amine]"
6,2.89 µM,"Cc1cc(N2CCCC(F)(F)C2)n2nc(Cc3ccc(Cl)cc3)cc2n1 [Example 1-4, 2-(4-chlorobenzyl)-7-(3,3-difluoropiperidin-1-yl)-5-methylpyrazolo[1,5-a]pyrimidine]"
7,5.93 µM,"Cc1cc(N2CCC(O)C(F)(F)C2)n2nc(Cc3ccc(Cl)cc3)cc2n1 (stereo not shown) [Example 1-5, 1-[2-(4-chlorobenzyl)-5-methylpyrazolo[1,5-a]pyrimidin-7-yl]-3,3-difluoropiperidin-4-ol]"
8,0.974 µM,"Cc1cc(N2CCC[C@H](O)C2)n2nc(Cc3ccc(Cl)cc3)cc2n1 [Example 1-6, (3S)-1-[2-(4-chlorobenzyl)-5-methylpyrazolo[1,5-a]pyrimidin-7-yl]piperidin-3-ol]"
9,1.23 µM,"Cc1cc(N2CCC[C@@H](O)C2)n2nc(Cc3ccc(Cl)cc3)cc2n1 [Example 1-7, (3R)-1-[2-(4-chlorobenzyl)-5-methylpyrazolo[1,5-a]pyrimidin-7-yl]piperidin-3-ol]"
10,1.3 µM,"Cc1cc(N2CCC[C@H](CO)C2)n2nc(Cc3ccc(Cl)cc3)cc2n1 [Example 1-8, {(3S)-1-[2-(4-chlorobenzyl)-5-methylpyrazolo[1,5-a]pyrimidin-7-yl]piperidin-3-yl}methanol]"
11,2.57 µM,"Cc1cc(N2CCCCC2)n2nc(Cc3ccc(Cl)cc3)cc2n1 [Example 1-9, 2-(4-chlorobenzyl)-5-methyl-7-(piperidin-1-yl)pyrazolo[1,5-a]pyrimidine]"
12,> 10 µM,"Cc1cc(N2CCCCC2=O)n2nc(Cc3ccc(Cl)cc3)cc2n1 [Example 1-10, 1-[2-(4-chlorobenzyl)-5-methylpyrazolo[1,5-a]pyrimidin-7-yl]piperidin-2-one]"
13,> 10 µM,"CC(=O)N[C@@H]1CCN(c2cc(C)nc3cc(Cc4ccc(Cl)cc4)nn23)C1 [Example 1-11, N-{(3R)-1-[2-(4-chlorobenzyl)-5-methylpyrazolo[1,5-a]pyrimidin-7-yl]pyrrolidin-3-yl}acetamide]"
14,3.97 µM,"Cc1cc(N2CCCC2)n2nc(Cc3ccc(Cl)cc3)cc2n1 [Example 1-12, 2-(4-chlorobenzyl)-5-methyl-7-(pyrrolidin-1-yl)pyrazolo[1,5-a]pyrimidine]"
15,> 10 µM,"Cc1cc(N2CCC2)n2nc(Cc3ccc(Cl)cc3)cc2n1 [Example 1-13, 7-(azetidin-1-yl)-2-(4-chlorobenzyl)-5-methylpyrazolo[1,5-a]pyrimidine]"
16,1.03 µM,"Cc1cc(NC(C)(C)C)n2nc(Cc3ccc(Cl)cc3)cc2n1 [Example 1-14, N-tert-butyl-2-(4-chlorobenzyl)-5-methylpyrazolo[1,5-a]pyrimidin-7-amine]"
17,1.18 µM,"Cc1cc(NC2(C(F)(F)F)CC2)n2nc(Cc3ccc(Cl)cc3)cc2n1 [Example 1-15, 2-(4-chlorobenzyl)-5-methyl-N-[1-(trifluoromethyl)cyclopropyl]pyrazolo[1,5-a]pyrimidin-7-amine]"

row,EC50,Structure (SMILES)
1,> 10 µM,"Cc1cc(NCC(F)(F)F)n2nc(Cc3ccc(Cl)cc3)cc2n1 [Example 1-16, 2-(4-chlorobenzyl)-5-methyl-N-(2,2,2-trifluoroethyl)pyrazolo[1,5-a]pyrimidin-7-amine]"
2,> 10 µM,"CC(=O)N[C@H]1CCN(c2cc(C)nc3cc(Cc4ccc(Cl)cc4)nn23)C1 [Example 1-17, N-{(3S)-1-[2-(4-chlorobenzyl)-5-methylpyrazolo[1,5-a]pyrimidin-7-yl]pyrrolidin-3-yl}acetamide]"
3,2.69 µM,"Cc1cc(N[C@@H](C)C(F)(F)F)n2nc(Cc3ccc(Cl)cc3)cc2n1 [Example 1-18, 2-(4-chlorobenzyl)-5-methyl-N-[(2S)-1,1,1-trifluoropropan-2-yl]pyrazolo[1,5-a]pyrimidin-7-amine]"
4,10 µM,"Cc1cc(N2CCCC(C(N)=O)C2)n2nc(Cc3ccc(Cl)cc3)cc2n1 (stereo not shown) [Example 1-19, 1-[2-(4-chlorobenzyl)-5-methylpyrazolo[1,5-a]pyrimidin-7-yl]piperidine-3-carboxamide]"
5,2.15 µM,"Cc1cc(N[C@H](C)C(F)(F)F)n2nc(Cc3ccc(Cl)cc3)cc2n1 [Example 1-20, 2-(4-chlorobenzyl)-5-methyl-N-[(2R)-1,1,1-trifluoropropan-2-yl]pyrazolo[1,5-a]pyrimidin-7-amine]"
6,1.38 µM,"Cc1cc(N2CCC[C@@H](CO)C2)n2nc(Cc3ccc(Cl)cc3)cc2n1 [Example 1-21, {(3R)-1-[2-(4-chlorobenzyl)-5-methylpyrazolo[1,5-a]pyrimidin-7-yl]piperidin-3-yl}methanol]"
7,0.118 µM,"Cc1cc(N2CCCCC2CCO)n2nc(C(C)c3ccc(Cl)cc3)cc2n1 (stereo not shown) [Example 2-1, 2-(1-{2-[1-(4-chlorophenyl)ethyl]-5-methylpyrazolo[1,5-a]pyrimidin-7-yl}piperidin-2-yl)ethanol]"
8,0.435 µM,"Cc1cc(NC2(C)CC2)n2nc(C(C)c3ccc(Cl)cc3)cc2n1 (stereo not shown) [Example 2-2, 2-[1-(4-chlorophenyl)ethyl]-5-methyl-N-(1-methylcyclopropyl)pyrazolo[1,5-a]pyrimidin-7-amine]"
9,0.508 µM,"Cc1cc(N2CCC(F)(F)C2)n2nc(C(C)c3ccc(Cl)cc3)cc2n1 (stereo not shown) [Example 2-3, 2-[1-(4-chlorophenyl)ethyl]-7-(3,3-difluoropyrrolidin-1-yl)-5-methylpyrazolo[1,5-a]pyrimidine]"
10,0.128 µM,"Cc1cc(N2CCC(F)CC2)n2nc(C(C)c3ccc(Cl)cc3)cc2n1 (stereo not shown) [Example 2-4, 2-[1-(4-chlorophenyl)ethyl]-7-(4-fluoropiperidin-1-yl)-5-methylpyrazolo[1,5-a]pyrimidine]"
11,0.146 µM,"Cc1cc(N2CCCCC2CO)n2nc(C(C)c3ccc(Cl)cc3)cc2n1 (stereo not shown) [Example 2-5, (1-{2-[1-(4-chlorophenyl)ethyl]-5-methylpyrazolo[1,5-a]pyrimidin-7-yl}piperidin-2-yl)methanol]"
12,0.242 µM,"Cc1cc(N2CCCC(F)C2)n2nc(C(C)c3ccc(Cl)cc3)cc2n1 (stereo not shown) [Example 2-6, 2-[1-(4-chlorophenyl)ethyl]-7-(3-fluoropiperidin-1-yl)-5-methylpyrazolo[1,5-a]pyrimidine]"
13,0.185 µM,"Cc1cc(N2CCCC(F)(F)C2)n2nc(C(C)c3ccc(Cl)cc3)cc2n1 (stereo not shown) [Example 2-7, 2-[1-(4-chlorophenyl)ethyl]-7-(3,3-difluoropiperidin-1-yl)-5-methylpyrazolo[1,5-a]pyrimidine]"
14,0.071 µM,"Cc1cc(NC(C)(C)C)n2nc(C(C)c3ccc(Cl)cc3)cc2n1 (stereo not shown) [Example 2-8, N-tert-butyl-2-[1-(4-chlorophenyl)ethyl]-5-methylpyrazolo[1,5-a]pyrimidin-7-amine]"
15,0.604 µM,"Cc1cc(N2CCC3(CC2)COC3)n2nc(C(C)c3ccc(Cl)cc3)cc2n1 (stereo not shown) [Example 2-9, 2-[1-(4-chlorophenyl)ethyl]-5-methyl-7-(2-oxa-7-azaspiro[3.5]non-7-yl)pyrazolo[1,5-a]pyrimidine]"
16,0.152 µM,"Cc1cc(N2CCC[C@H](O)C2)n2nc(C(C)c3ccc(Cl)cc3)cc2n1 (stereo partly drawn) [Example 2-10, (3S)-1-{2-[1-(4-chlorophenyl)ethyl]-5-methylpyrazolo[1,5-a]pyrimidin-7-yl}piperidin-3-ol]"
17,0.057 µM,"Cc1cc(N2CCC[C@@H](O)C2)n2nc(C(C)c3ccc(Cl)cc3)cc2n1 (stereo partly drawn) [Example 2-11, (3R)-1-{2-[1-(4-chlorophenyl)ethyl]-5-methylpyrazolo[1,5-a]pyrimidin-7-yl}piperidin-3-ol]"
